# Active and inactive are the calls of the source.
# Columns and labels:
# [1] = miR-122 activators in hepatoma reporter cells, dose response, cell-based, Huh7 psiCHECK-miR122, Renilla luciferase, cherry-picked (AID 651956); format: functional;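 note: huh7 hepatoma cells stably carrying a psiCHECK-2 miR-122 sensor plasmid; renilla luciferase signal reporting endogenous miR-122 activity after 48 h compound exposure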
# [2] = target: T1, Low molecular weight phosphotyrosine protein phosphatase (Homo sapiens, UniProt P24666); format: functional; conditions: read-out: IC50_Mean
# T1 sequence (P24666 whole entry): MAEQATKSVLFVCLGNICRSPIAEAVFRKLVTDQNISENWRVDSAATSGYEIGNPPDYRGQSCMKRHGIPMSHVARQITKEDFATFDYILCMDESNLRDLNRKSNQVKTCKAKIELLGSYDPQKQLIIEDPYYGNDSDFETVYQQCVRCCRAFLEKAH
# [3] = target: T1, Low molecular weight phosphotyrosine protein phosphatase; format: functional; conditions: read-out: IC50_Mean; remark: listed apart in the source
# [4] = Inhibition of Plasmodium falciparum NF54 Measured in Cell-Based System Using Plate Reader - 2138-11_Inhibitor_Dose_CherryPick_Activity.; format: functional
# [5] = Inhibition of T. cruzi Tulahuen strain amastigotes in L-6 muscle cells Measured in Cell-Based and Microorganism Combination System Using Plate Reader - 2138-03_Inhibitor_Dose_CherryPick_Activity.; format: functional; conditions: Rattus norvegicus, L6
# [6] = T. cruzi intracellular amastigote growth inhibition, dose response, imaging, CA-I/72 strain, bovine embryo skeletal muscle, dry powder (AID 651885); format: functional, cell-based
# [7] = L. donovani amastigote growth inhibition, dose response, axenic amastigotes, plate reader, cherry pick (AID 651891); format: functional, cell-based; conditions: Leishmania donovani
# [8] = T. b. rhodesiense proliferation inhibition, dose response, STIB900 strain, plate reader, cherry pick (AID 651893); format: functional, cell-based; conditions: Trypanosoma brucei
# [9] = cytotoxicity in L-6 rat myocytes, dose response, cytotoxicity control, cell-based, plate reader, cherry-pick (AID 651896); format: functional
# [10] = intracellular Trypanosoma cruzi inhibitors in host cells – cell-based, plate reader, cherry-pick samples, set 3, dose response (AID 651818); format: functional;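 note: compounds incubated with infected cells for about four days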
# [11] = MDA-MB-231 cell growth inhibition, dose response, cytotoxicity control for RAD54 inhibitor project, CellTiter-Glo luminescence, cherry-pick (AID 651692); format: functional, cell-based
# [12] = test system: BJ; assay: cytotoxicity toward BJ-TERT-LT-ST fibroblasts, dose response, cell-based, RAS-independent, luminescence (AID 1935); format: functional; conditions: Homo sapiens;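 note: BJ fibroblasts immortalized with TERT plus LT and ST oncogenes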
# [13] = target: T2, Ubiquitin-conjugating enzyme E2 N (Homo sapiens, UniProt P61088); format: functional;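 note: Dose-response confirmation in a TR-FRET assay detecting UBC13-driven polyubiquitin chain formation, inhibition measured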
# T2 sequence (P61088 whole entry): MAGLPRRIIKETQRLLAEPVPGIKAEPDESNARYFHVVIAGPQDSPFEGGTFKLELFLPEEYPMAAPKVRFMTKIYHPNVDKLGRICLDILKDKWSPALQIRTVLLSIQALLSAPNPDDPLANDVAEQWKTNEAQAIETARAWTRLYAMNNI
# [14] = non-specific cell cytotoxicity, dose response, cytotoxicity control for PAX8 inhibitor project, plate reader, dry powder samples (AID 743021); format: functional, cell-based
# [15] = target: G-protein coupled receptor 55 (Homo sapiens, UniProt Q9Y2T6); assay: GPR55 antagonists blocking LPI-driven arrestin recruitment, primary screen, imaging, U2OS, beta-arrestin-GFP, LPI agonist (AID 2013); format: functional;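 note: antagonist potency measured as reduced agonist-driven arrestin aggregation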
# G-protein coupled receptor 55, sequence (Q9Y2T6 whole entry): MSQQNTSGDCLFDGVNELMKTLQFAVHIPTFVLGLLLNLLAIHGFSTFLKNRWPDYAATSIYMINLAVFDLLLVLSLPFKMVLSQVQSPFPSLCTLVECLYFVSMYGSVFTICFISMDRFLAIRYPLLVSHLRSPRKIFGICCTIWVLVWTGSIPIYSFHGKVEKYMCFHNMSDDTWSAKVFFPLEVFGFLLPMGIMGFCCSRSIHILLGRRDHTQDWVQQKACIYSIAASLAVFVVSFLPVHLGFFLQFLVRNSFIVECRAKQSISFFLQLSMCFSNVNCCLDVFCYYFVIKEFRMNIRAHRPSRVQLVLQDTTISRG
# [16] = inhibitors of SNCA 5'UTR-driven reporter translation, confirmation, H4 neuroglioma cells, luminescence (AID 1988); format: functional, cell-based
# [17] = test system: BJ; assay: cytotoxicity toward BJ-TERT fibroblasts, dose response, cell-based, RAS-independent, luminescence (AID 1933); format: functional; conditions: Homo sapiens
# [18] = target: T3, Heat shock factor protein 1 (Mus musculus, UniProt P38532); assay: inhibition of MG132-induced HSE-luciferase signal, confirmation, cell-based, NIH3T3, luminescence, dose retest (AID 2382); format: functional;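 note: NIH3T3 fibroblasts with HSF1-driven luciferase reporter stressed by proteasome inhibitor MG132; luminescence from HSF1-driven luciferase expression after 8 hours of MG132 stress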
# T3 sequence (P38532 whole entry): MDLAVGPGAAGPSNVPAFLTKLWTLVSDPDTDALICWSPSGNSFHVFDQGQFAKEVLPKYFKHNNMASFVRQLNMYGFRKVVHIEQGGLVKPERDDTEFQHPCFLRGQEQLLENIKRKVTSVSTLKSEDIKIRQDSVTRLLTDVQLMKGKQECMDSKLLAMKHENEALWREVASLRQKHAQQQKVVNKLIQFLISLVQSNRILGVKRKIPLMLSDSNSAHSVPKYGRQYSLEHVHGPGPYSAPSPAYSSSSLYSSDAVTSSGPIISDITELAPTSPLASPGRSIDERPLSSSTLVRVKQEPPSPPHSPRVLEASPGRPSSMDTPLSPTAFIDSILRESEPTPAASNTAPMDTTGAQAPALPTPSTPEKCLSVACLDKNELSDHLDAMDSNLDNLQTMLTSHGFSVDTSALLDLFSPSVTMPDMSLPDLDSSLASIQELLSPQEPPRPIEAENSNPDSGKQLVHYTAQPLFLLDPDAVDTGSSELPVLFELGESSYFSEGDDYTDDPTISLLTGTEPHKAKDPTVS
# [19] = target: Paired box protein Pax-8 (Homo sapiens, UniProt Q06710); assay: inhibitors of PAX8-driven TPO luciferase reporter, dose response, RMG-I cells, cherry-pick (AID 687027); format: functional, cell-based;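 note: luciferase reporter driven by Pax8 target thyroperoxidase promoter measured by SteadyGlo luminescence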
# Paired box protein Pax-8, sequence (Q06710 whole entry): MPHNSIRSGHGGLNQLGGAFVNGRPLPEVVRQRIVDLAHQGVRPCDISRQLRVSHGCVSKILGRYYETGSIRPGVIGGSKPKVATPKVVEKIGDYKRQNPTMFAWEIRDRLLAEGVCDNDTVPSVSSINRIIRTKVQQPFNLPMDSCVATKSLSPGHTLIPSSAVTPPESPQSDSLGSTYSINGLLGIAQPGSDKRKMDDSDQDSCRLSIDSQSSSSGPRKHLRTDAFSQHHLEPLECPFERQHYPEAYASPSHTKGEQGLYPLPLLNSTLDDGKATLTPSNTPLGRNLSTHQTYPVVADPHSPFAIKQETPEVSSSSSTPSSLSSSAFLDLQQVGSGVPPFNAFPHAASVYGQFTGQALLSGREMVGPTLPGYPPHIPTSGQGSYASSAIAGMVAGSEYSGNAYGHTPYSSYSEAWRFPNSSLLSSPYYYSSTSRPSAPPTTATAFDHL
# [20] = test system: BJ; assay: cytotoxicity toward Ras-transformed BJeLR fibroblasts, dose response, cell-based, alamar blue fluorescence, cherrypicked samples (AID 2631); format: functional; conditions: Homo sapiens;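 note: confirmatory dose-response assay in RAS-dependent BJ fibroblasts engineered with TERT, LT and ST, with cytotoxicity read by fluorescence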
# [21] = test system: BJ; assay: cells; format: functional, cell-based; conditions: Homo sapiens
# [22] = target: T4, DNA repair and recombination protein RAD54-like (Homo sapiens, UniProt Q92698); assay: inhibitors of human RAD54 branch migration, confirmation, biochemical, fluorescence, cherry-picked samples, dose series (AID 651657); format: functional
# T4 sequence (Q92698 whole entry): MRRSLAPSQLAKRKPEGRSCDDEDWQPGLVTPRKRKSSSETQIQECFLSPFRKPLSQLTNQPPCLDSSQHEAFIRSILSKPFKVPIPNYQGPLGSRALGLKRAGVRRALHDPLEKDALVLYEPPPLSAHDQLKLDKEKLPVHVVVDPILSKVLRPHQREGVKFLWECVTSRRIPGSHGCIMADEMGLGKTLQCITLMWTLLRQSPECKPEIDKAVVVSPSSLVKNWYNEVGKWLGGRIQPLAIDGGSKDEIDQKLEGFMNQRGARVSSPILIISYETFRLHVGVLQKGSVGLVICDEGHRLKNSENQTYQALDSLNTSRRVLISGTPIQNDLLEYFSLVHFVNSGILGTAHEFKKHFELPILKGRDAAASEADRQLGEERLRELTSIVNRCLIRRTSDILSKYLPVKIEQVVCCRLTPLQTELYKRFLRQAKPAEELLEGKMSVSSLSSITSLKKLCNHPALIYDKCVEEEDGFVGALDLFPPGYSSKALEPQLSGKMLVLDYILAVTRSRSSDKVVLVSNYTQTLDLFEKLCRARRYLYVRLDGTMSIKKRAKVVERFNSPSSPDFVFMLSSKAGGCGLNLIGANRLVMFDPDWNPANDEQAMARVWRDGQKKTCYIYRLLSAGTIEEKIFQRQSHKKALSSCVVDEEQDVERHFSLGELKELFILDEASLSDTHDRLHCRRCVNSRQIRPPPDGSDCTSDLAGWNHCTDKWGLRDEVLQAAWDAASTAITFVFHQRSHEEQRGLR
# [23] = cytotoxicity toward DRD oncogenic fibroblasts, dose response, cell-based, non-viral oncogenic, luminescence (AID 1934); format: functional; conditions: Homo sapiens
# [24] = target: DNA repair protein RAD52 homolog (Homo sapiens, UniProt P43351); format: functional, biochemical
# DNA repair protein RAD52 homolog, sequence (P43351 whole entry): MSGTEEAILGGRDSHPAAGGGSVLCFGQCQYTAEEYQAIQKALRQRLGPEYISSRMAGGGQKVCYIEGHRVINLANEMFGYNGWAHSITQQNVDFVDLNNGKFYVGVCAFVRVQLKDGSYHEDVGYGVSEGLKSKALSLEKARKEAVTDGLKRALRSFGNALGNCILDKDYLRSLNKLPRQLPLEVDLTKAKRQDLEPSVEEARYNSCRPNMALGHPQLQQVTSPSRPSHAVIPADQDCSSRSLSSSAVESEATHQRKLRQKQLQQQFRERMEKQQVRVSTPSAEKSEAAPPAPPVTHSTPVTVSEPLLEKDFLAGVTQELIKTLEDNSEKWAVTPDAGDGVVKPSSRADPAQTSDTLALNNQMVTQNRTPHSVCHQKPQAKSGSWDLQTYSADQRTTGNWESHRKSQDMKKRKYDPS
# [25] = inhibitors of firefly luciferase expression or activity, dose response, H4 neuroglioma cells, luminescence (AID 1990); format: functional, cell-based
structure (smiles),measurement,setting,value
CN1C(=O)c2cc(NC(=O)c3cccc(C(F)(F)F)c3)ccc2OC[C@H]2O[C@H](CC(=O)NCCN3CCCC3)CC[C@H]21,AC50,[1],38.9 µM (active)
CC(=O)Nc1ccc(CNc2nc(NCC3CC3)nc3ccsc23)cc1,IC50,[2],12.6 µM (active)
same,IC50,[3],17 µM (active)
C[C@@H]1CN([C@@H](C)CO)C(=O)c2cccc(NC(=O)c3ccncc3)c2O[C@H]1CN(C)Cc1ccccc1,IC50,[4],4.77 µM (inactive)
same,IC50,[5],4.77 µM (inactive)
same,IC50,[6],10 µM (inconclusive)
same,IC50,[7],> 100 µM (inactive)
same,IC50,[8],5.33 µM (inactive)
same,IC50,[9],> 100 µM (inactive)
same,AC50,[10],0.08 µM (active)
CN(C)CCNC(=O)c1cc2c(s1)-c1ccc(Cl)cc1SC2,AC50,[11],11 µM (active)
same,EC50,[12],5.57 µM (inconclusive)
same,IC50,[13],> 20 µM (inactive)
same,AC50,[14],29.3 µM (active)
same,IC50,[15],6.25 µM (active)
same,EC50,[16],9.06 µM (active)
same,EC50,[17],4.54 µM (active)
same,EC50,[18],13.5 µM (active)
same,AC50,[19],9.29 µM (active)
same,EC50,[20],2.18 µM (active)
same,EC50,[21],5.2 µM (inconclusive)
same,AC50,[22],60.8 µM (active)
same,EC50,[23],5.06 µM (active)
same,AC50,[24],8.31 µM (active)
same,EC50,[25],> 120 µM (not active)

# From ChEMBL document CHEMBL1201862, “PubChem BioAssay data set” (2004)
